Test results as given in US20220119354A1, “DIAMINO-SUBSTITUTED PYRIDINES AND PYRIMIDINES AS HERBICIDES” (FMC Corporation, priority 2019, published 2022).

Legend:
Format in all cases: in vivo
[1] = tested on: ryegrass, Italian (Lolium multiflorum); test: Test A postemergence, Italian ryegrass; settings: 0 to 100 scale; for Plant response rating, Ryegrass, Italian: 125 g ai/ha, 0 no effect, 100 complete control; for Ryegrass, Italian plant response rating: 500 g ai/ha, 0 is no effect, 100 is complete control
Method in brief: (§1)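 Using a solvent/surfactant formulation, test chemicals were sprayed onto freshly seeded soil or onto 2–10 cm seedlings at the one- to two-leaf stage. Visual injury ratings on a 0–100 scale were made about 10 d later in the greenhouse.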

kochia (Kochia scoparia) [2] = test: Test A preemergence, kochia; settings: 0 to 100 scale, 0 is no effect, 100 is complete control
Method in brief: as §1

[3] = tested on: pigweed (Amaranthus retroflexus); test: Test A postemergence, pigweed; settings: 0 to 100 scale; for Plant response rating, Pigweed: 125 g ai/ha, 0 no effect, 100 complete control; for Pigweed plant response rating: 500 g ai/ha, 0 is no effect, 100 is complete control
Method in brief: as §1

[4] = tested on: foxtail, giant (Setaria faberii); test: Test A preemergence, giant foxtail; settings: 0 to 100 scale, 0 is no effect, 100 is complete control
Method in brief: as §1

[5] = tested on: ragweed (common ragweed, Ambrosia elatior); test: Test A postemergence, ragweed; settings: 0 to 100 scale; for Plant response rating, Ragweed: 125 g ai/ha, 0 no effect, 100 complete control; for Ragweed plant response rating: 500 g ai/ha, 0 is no effect, 100 is complete control
Method in brief: as §1

[6] = tested on: barnyardgrass (Echinochloa crus-galli); test: Test A preemergence, barnyardgrass; settings: 0 to 100 scale, 0 is no effect, 100 is complete control
Method in brief: as §1

kochia (Kochia scoparia) [7] = test: Test A postemergence, kochia; settings: 0 to 100 scale; for Plant response rating, Kochia: 125 g ai/ha, 0 no effect, 100 complete control; for Kochia plant response rating: 500 g ai/ha, 0 is no effect, 100 is complete control
Method in brief: as §1

[8] = tested on: blackgrass (Alopecurus myosuroides); test: Test A postemergence, blackgrass; settings: 0 to 100 scale; for Plant response rating, Blackgrass: 125 g ai/ha, 0 no effect, 100 complete control; for Blackgrass plant response rating: 500 g ai/ha, 0 is no effect, 100 is complete control
Method in brief: as §1

[9] = tested on: barnyardgrass (Echinochloa crus-galli); test: Test B flooded paddy test, barnyardgrass; settings: Flood, 250 g ai/ha, applied to paddy water, 2-leaf stage, visual evaluation after 13 to 15 d
Method in brief: (§2)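 Pots flooded to 3 cm above the soil when treated, with test compound added straight to the water and the flood maintained. Treated plants were at the 2-leaf stage and stayed 13–15 d in greenhouse. Response versus untreated controls scored visually from 0 (no effect) to 100 (complete control).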

[10] = tested on: pigweed (Amaranthus retroflexus); test: Test A preemergence, pigweed; settings: 0 to 100 scale, 0 is no effect, 100 is complete control
Method in brief: as §1

[11] = tested on: foxtail, giant (Setaria faberii); test: Test A postemergence, giant foxtail; settings: 0 to 100 scale; for Plant response rating, Foxtail, Giant: 125 g ai/ha, 0 no effect, 100 complete control; for Foxtail, Giant plant response rating: 500 g ai/ha, 0 is no effect, 100 is complete control
Method in brief: as §1

[12] = tested on: sedge, umbrella (small-flower umbrella sedge, Cyperus difformis); test: Test B flooded paddy test, umbrella sedge; settings: Flood, 250 g ai/ha, applied to paddy water, 2-leaf stage, visual evaluation after 13 to 15 d
Method in brief: as §2

[13] = tested on: wheat (Triticum aestivum); test: Test A postemergence, wheat; settings: 0 to 100 scale; for Plant response rating, Wheat: 125 g ai/ha, 0 no effect, 100 complete control; for Wheat plant response rating: 500 g ai/ha, 0 is no effect, 100 is complete control
Method in brief: as §1

rice (Oryza sativa) = test: Test B flooded paddy test, rice; settings: Flood, 250 g ai/ha, applied to paddy water, 2-leaf stage, visual evaluation after 13 to 15 d
Method in brief: as §2

[14] = tested on: galium (catchweed bedstraw, Galium aparine); test: Test A postemergence, galium; settings: 0 to 100 scale; for Plant response rating, Galium: 125 g ai/ha, 0 no effect, 100 complete control; for Galium plant response rating: 500 g ai/ha, 0 is no effect, 100 is complete control
Method in brief: as §1

[15] = tested on: barnyardgrass (Echinochloa crus-galli); test: Test A postemergence, barnyardgrass; settings: 0 to 100 scale; for Plant response rating, Barnyardgrass: 125 g ai/ha, 0 no effect, 100 complete control; for Barnyardgrass plant response rating: 500 g ai/ha, 0 is no effect, 100 is complete control
Method in brief: as §1

corn (Zea mays) = test: Test A postemergence, corn; settings: 0 to 100 scale; for Plant response rating, Corn: 125 g ai/ha, 0 no effect, 100 complete control; for Corn plant response rating: 500 g ai/ha, 0 is no effect, 100 is complete control
Method in brief: as §1

[16] = tested on: ragweed (common ragweed, Ambrosia elatior); test: Test A preemergence, ragweed; settings: 0 to 100 scale, 0 is no effect, 100 is complete control
Method in brief: as §1

[17] = tested on: ryegrass, Italian (Lolium multiflorum); test: Test A preemergence, Italian ryegrass; settings: 0 to 100 scale, 0 is no effect, 100 is complete control
Method in brief: as §1

[18] = tested on: ducksalad (Heteranthera limosa); test: Test B flooded paddy test, ducksalad; settings: Flood, 250 g ai/ha, applied to paddy water, 2-leaf stage, visual evaluation after 13 to 15 d
Method in brief: as §2

SMILES | Plant response rating, Ryegrass, Italian [1] | Ryegrass, Italian plant response rating [1] | Kochia plant response rating (kochia (Kochia scoparia) [2]; 125 g ai/ha) | Kochia plant response rating (kochia (Kochia scoparia) [2]; 500 g ai/ha) | Plant response rating, Pigweed [3] | Pigweed plant response rating [3] | Foxtail, Giant plant response rating ([4]; 125 g ai/ha) | Foxtail, Giant plant response rating ([4]; 500 g ai/ha) | Plant response rating, Ragweed [5] | Ragweed plant response rating [5] | Barnyardgrass plant response rating ([6]; 125 g ai/ha) | Barnyardgrass plant response rating ([6]; 500 g ai/ha) | Plant response rating, Kochia (kochia (Kochia scoparia) [7]) | Kochia plant response rating (kochia (Kochia scoparia) [7]) | Plant response rating, Blackgrass [8] | Blackgrass plant response rating [8] | Plant response rating, Barnyardgrass (0 to 100 scale, 0 is no effect, 100 is complete control) [9] | Pigweed plant response rating ([10]; 125 g ai/ha) | Pigweed plant response rating ([10]; 500 g ai/ha) | Plant response rating, Foxtail, Giant [11] | other results
C[C@H](Nc1ncc(C(F)(F)F)c(N)n1)c1csc2ccccc12 [Compound 42] | 0 | 0 | 0 | 0 | 0 | 0 | 0 | 0 | 30 | 0 | 0 | 0 | 0 | 0 | 20 | 0 | 0 | 0 | 0 | 0 | Foxtail, Giant plant response rating [11]: 0; Plant response rating, Sedge, Umbrella (0 to 100 scale, 0 is no effect, 100 is complete control) [12]: 0; Plant response rating, Wheat [13]: 0; Wheat plant response rating [13]: 0; Plant response rating, Rice (0 to 100 scale, 0 is no effect, 100 is complete control) (rice (Oryza sativa)): 0; Plant response rating, Galium [14]: 20; Galium plant response rating [14]: 20; Plant response rating, Barnyardgrass [15]: 30; Barnyardgrass plant response rating [15]: 0; Plant response rating, Corn (corn (Zea mays)): 0; Corn plant response rating (corn (Zea mays)): 0; Ragweed plant response rating ([16]; 125 g ai/ha): 0; Ragweed plant response rating ([16]; 500 g ai/ha): 0; Ryegrass, Italian plant response rating ([17]; 125 g ai/ha): 0; Ryegrass, Italian plant response rating ([17]; 500 g ai/ha): 0; Plant response rating, Ducksalad (0 to 100 scale, 0 is no effect, 100 is complete control) [18]: 0
CC[C@@H](Nc1ncc(C(F)(F)F)c(N)n1)c1cc2ccccc2s1 [Compound 43] | 40 | 40 | 90 | 100 | 100 | 100 | 80 | 90 | 60 | 90 | 70 | 70 | 90 | 90 | 0 | 20 | 0 | 90 | 100 | 30 | Foxtail, Giant plant response rating [11]: 100; Plant response rating, Sedge, Umbrella (0 to 100 scale, 0 is no effect, 100 is complete control) [12]: 0; Plant response rating, Wheat [13]: 0; Wheat plant response rating [13]: 0; Plant response rating, Rice (0 to 100 scale, 0 is no effect, 100 is complete control) (rice (Oryza sativa)): 0; Plant response rating, Galium [14]: 70; Galium plant response rating [14]: 90; Plant response rating, Barnyardgrass [15]: 20; Barnyardgrass plant response rating [15]: 100; Plant response rating, Corn (corn (Zea mays)): 0; Corn plant response rating (corn (Zea mays)): 20; Ragweed plant response rating ([16]; 125 g ai/ha): 100; Ragweed plant response rating ([16]; 500 g ai/ha): 100; Ryegrass, Italian plant response rating ([17]; 125 g ai/ha): 20; Ryegrass, Italian plant response rating ([17]; 500 g ai/ha): 50; Plant response rating, Ducksalad (0 to 100 scale, 0 is no effect, 100 is complete control) [18]: 0
CC[C@H](Nc1ncc(C(F)(F)F)c(N)n1)c1cc2ccccc2s1 [Compound 44] | 0 | 0 | 0 | 0 | 0 | 60 | 0 | 20 | 0 | 0 | 0 | 40 | 0 | 50 | 0 | 20 | 0 | 20 | 20 | 0 | Foxtail, Giant plant response rating [11]: 10; Plant response rating, Sedge, Umbrella (0 to 100 scale, 0 is no effect, 100 is complete control) [12]: 0; Plant response rating, Wheat [13]: 0; Wheat plant response rating [13]: 0; Plant response rating, Rice (0 to 100 scale, 0 is no effect, 100 is complete control) (rice (Oryza sativa)): 0; Plant response rating, Galium [14]: 0; Galium plant response rating [14]: 0; Plant response rating, Barnyardgrass [15]: 0; Barnyardgrass plant response rating [15]: 0; Plant response rating, Corn (corn (Zea mays)): 0; Corn plant response rating (corn (Zea mays)): 0; Ragweed plant response rating ([16]; 125 g ai/ha): 20; Ragweed plant response rating ([16]; 500 g ai/ha): 50; Ryegrass, Italian plant response rating ([17]; 125 g ai/ha): 0; Ryegrass, Italian plant response rating ([17]; 500 g ai/ha): 0; Plant response rating, Ducksalad (0 to 100 scale, 0 is no effect, 100 is complete control) [18]: 0
C[C@@H](Nc1ncc(C(F)(F)F)c(N)n1)c1cc2ccc(F)cc2s1 [Compound 46] | 0 | 40 | 90 | 100 | 100 | 100 | 70 | 100 | 50 | 80 | 20 | 90 | 90 | 90 | 20 | 30 | 40 | 100 | 100 | 10 | Foxtail, Giant plant response rating [11]: 60; Plant response rating, Sedge, Umbrella (0 to 100 scale, 0 is no effect, 100 is complete control) [12]: 95; Plant response rating, Wheat [13]: 0; Wheat plant response rating [13]: 0; Plant response rating, Rice (0 to 100 scale, 0 is no effect, 100 is complete control) (rice (Oryza sativa)): 10; Plant response rating, Galium [14]: 60; Galium plant response rating [14]: 90; Plant response rating, Barnyardgrass [15]: 20; Barnyardgrass plant response rating [15]: 60; Plant response rating, Corn (corn (Zea mays)): 0; Corn plant response rating (corn (Zea mays)): 60; Ragweed plant response rating ([16]; 125 g ai/ha): 80; Ragweed plant response rating ([16]; 500 g ai/ha): 100; Ryegrass, Italian plant response rating ([17]; 125 g ai/ha): 20; Ryegrass, Italian plant response rating ([17]; 500 g ai/ha): 80; Plant response rating, Ducksalad (0 to 100 scale, 0 is no effect, 100 is complete control) [18]: 30
C[C@H](Nc1ncc(C(F)(F)F)c(N)n1)c1cc2ccc(F)cc2s1 [Compound 47] | 0 | 0 | 0 | 0 | 20 | 80 | 0 | 0 | 0 | 0 | 0 | 0 | 0 | 60 | 0 | 30 | 0 | 0 | 30 | 0 | Foxtail, Giant plant response rating [11]: 0; Plant response rating, Sedge, Umbrella (0 to 100 scale, 0 is no effect, 100 is complete control) [12]: 0; Plant response rating, Wheat [13]: 0; Wheat plant response rating [13]: 0; Plant response rating, Rice (0 to 100 scale, 0 is no effect, 100 is complete control) (rice (Oryza sativa)): 0; Plant response rating, Galium [14]: 0; Galium plant response rating [14]: 0; Plant response rating, Barnyardgrass [15]: 0; Barnyardgrass plant response rating [15]: 0; Plant response rating, Corn (corn (Zea mays)): 0; Corn plant response rating (corn (Zea mays)): 0; Ragweed plant response rating ([16]; 125 g ai/ha): 0; Ragweed plant response rating ([16]; 500 g ai/ha): 0; Ryegrass, Italian plant response rating ([17]; 125 g ai/ha): 0; Ryegrass, Italian plant response rating ([17]; 500 g ai/ha): 0; Plant response rating, Ducksalad (0 to 100 scale, 0 is no effect, 100 is complete control) [18]: 0
